From the METLIN SMRT retention time set (Domingo-Almenara et al. 2019) come the findings set out here.

This data set can be described thus: gradient 5% acetonitrile 3 min, to 50% in 2 min, to 85% in 15 min, held 3 min, 100 µL/min. Conditions: column: Zorbax Extend-C18 2.1 x 50 mm; eluents: water / acetonitrile, 0.1% formic acid. An outline of the steps: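 Using water and acetonitrile that each contained 0.1% formic acid, mixtures of ~100 pure standards were separated at 100 μL/min on a Zorbax Extend-C18 column (2.1 × 50 mm, 1.8 μm). The HPLC fed a quadrupole time-of-flight mass spectrometer working in positive and negative ionization mode, with dead and dwell volumes of 40 μL and 900 μL. Data were acquired over 3 months. Retention time was read from computationally picked adduct peaks after manual inspection of each.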
As for `Cc1cc(C)cc(Nc2c(C(=O)N3CCOCC3)cnc3nc(C)ccc23)c1`, the RP-LC retention time was 604 s.

In turn, `CCc1cc(C(=O)NCc2ccccc2Cl)nc2ccnn12` gave an RP-LC retention time of 1000 s.

Consider `O=C(Nc1ccc(Cl)c(C(F)(F)F)c1)C1CCN(C(=O)C2Sc3ccccc3NC2=O)CC1` (configuration not stated), for which the RP-LC retention time came out at 948 s.

For `CCOc1ccc(S(=O)(=O)N(CC(=O)N2CCNCC2)CC2CCCN2CC)cc1` (configuration not stated), the RP-LC retention time stood at 585 s.

Molecule `O=C(NCCOc1ccc2c(c1)OCO2)c1c(F)cccc1F` showed an RP-LC retention time of 760 s.

On to `CCC(C)NC(=O)C1(c2ccc(NS(=O)(=O)CC)cc2)CCCCC1` (configuration not stated), for which the RP-LC retention time is 887 s.

For the molecule `O=C(Nc1cccn2nc(C3CCC3)nc12)c1ccc(C(F)(F)F)s1`, the RP-LC retention time turned out to be 1120 s.

`COc1ccc(-c2noc(-c3nnn4c3COC(c3ccc(Cl)cc3)C4)n2)cc1` (configuration not stated) came in with an RP-LC retention time of 1190 s.

As to `COc1ccc(NC(=O)CN2CCc3[nH]c4c(C)c(C)ccc4c(=O)c3C2)c(OC)c1`, the RP-LC retention time is 626 s.

For `O=S(=O)(c1ccc2c(c1)CCC2)N1CCCC1c1noc(CO)n1` (configuration not stated), the RP-LC retention time is 779 s.

As for `COc1ccccc1-c1cc2c(=O)n(Cc3nc(-c4ccccc4)oc3C)ccn2n1`, the RP-LC retention time is 1120 s.

As for `COCCNC(=O)C1(C)Cn2nc(-c3ccco3)cc2C(=O)N1c1ccc(OC)c(Cl)c1` (configuration not stated), the RP-LC retention time was 776 s.

For `CSc1cccc(NC(=O)Cn2c(N3CCC(C)CC3)nc(C)cc2=O)c1`, the RP-LC retention time stood at 765 s.

As to `Cc1ccc(NC(=O)C2CCN(S(=O)(=O)c3ccc4c(c3)NC(=O)C(C)O4)CC2)cc1` (configuration not stated), the RP-LC retention time stood at 817 s.

In turn, `Cc1cc(C)c(C(=O)N2CCCC(C(=O)NCc3ccccc3Cl)C2)[nH]1` (configuration not stated) displayed an RP-LC retention time of 834 s.

`Cc1ccc(OCC(=O)Nc2cnn(C)c(=O)c2N2CCCCC2)cc1` yielded an RP-LC retention time of 1070 s.

In turn, `Cc1ccc(-c2nnc(N3CCC(C(=O)NCCN4CCOCC4)CC3)o2)cc1` displayed an RP-LC retention time of 614 s.

Regarding `COc1cccc(NC(=O)Cn2cccc2-c2nnc(-c3ccccc3)o2)c1`, the RP-LC retention time is 940 s.

`CN1CC(=O)N(CC(=O)Nc2ccc(-c3nc4ccccc4[nH]3)cc2)c2ccccc2C1=O` came in with an RP-LC retention time of 607 s.

Turning to `CCCn1cc(C(=O)Nc2cc(OC)ccc2OC)c(=O)c2ccc(C)nc21`, the RP-LC retention time was determined as 1090 s.

Regarding `O=C(CNC(=O)Cc1ccc(Cl)cc1)NCc1[nH]nc2ccccc12`, the RP-LC retention time was 703 s.

Turning to `COC(=O)c1cc(C2CC2)nc2c1c(=O)n(Cc1cccc(F)c1)c(=O)n2C`, the RP-LC retention time worked out at 1130 s.

Regarding `Cc1cc(C)cc(C(=O)N2CCC3(CC2)NC(=O)c2cc(Cl)ccc2N3C)c1`, the RP-LC retention time came to 850 s.

Turning to `NC(=O)CSc1nc(-c2ccccc2)c(NC(=O)c2cc3ccccc3o2)s1`, the RP-LC retention time amounted to 797 s.

Molecule `CCc1noc(-c2ccc(-n3cnc(C(=O)N4CCOCC4)c3)nc2)n1` showed an RP-LC retention time of 691 s.

For `CN(C)C(=O)N1CC(c2noc(-c3cccnc3)n2)C2(CCOCC2)C1` (configuration not stated), the RP-LC retention time is 634 s.

Turning to `CCc1nnc(-c2ccc3ccn(CC(=O)N4CCN(c5ccc(Cl)cc5)CC4)c3c2)o1`, the RP-LC retention time came to 965 s.

`COc1nn(C)cc1C(=O)Nc1nnc(C)s1`: the RP-LC retention time was determined as 583 s.

Regarding `O=C(Nc1sc2c(c1C(c1ccncc1)N1CCN(c3ccccn3)CC1)CCCC2)c1ccco1` (configuration not stated), the RP-LC retention time is 630 s.

In the case of `Cc1cccc(-c2nc(Cn3nnc(-c4nc(-c5ccc(F)cc5)no4)c3C)c(C)o2)c1`, the RP-LC retention time was determined as 1300 s.

Molecule `COC(=O)c1cccc(Nc2c(-c3ccc([N+](=O)[O-])cc3)nc3cnccn23)c1` had an RP-LC retention time of 839 s.

`CC(Cc1ccco1)NC(=O)C1CCN(Cc2cc3ccccc3n2Cc2cccc(Cl)c2)CC1` (configuration not stated): the RP-LC retention time is 821 s.
